Test results from PubChem BioAssay AID2387 (Broad Institute, 2010).
Several values for one entry are separate records, joined by “and”; a condition that tells them apart may be missing. Equal values may be shown once. Activity calls are given as the source filed them.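 How the source made its calls: active means fitted EC50 no more than tenfold above the highest tested concentration; inconclusive means flat fit with 30 to 70% signal loss, or poor fit; inactive means the rest.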

What follows are compounds tested on Candida albicans CaCi-2 growth (no fluconazole), Alamar Blue (assay: intrinsic antifungal toxicity in Candida, azole-free – CaCi-2 strain, Alamar Blue fluorescence, counter-screen for fluconazole resistance reversal project, dose response (AID 2387)). Conditions: C. albicans CaCi-2 (fluconazole-resistant clinical isolate) growth without fluconazole, 48 h.

SMILES	EC50
O=C(N/N=C/c1c(O)ccc2ccccc12)c1cccc(C(F)(F)F)c1	1.42 µM
CC(=O)NC(c1cccs1)c1cc([N+](=O)[O-])c2cccnc2c1O (stereo not drawn)	> 15 µM (inactive)
Cc1ccc(NC2=CC(=O)C(=O)c3ccccc32)cc1	> 15 µM (inactive)
Oc1c(CN2CCc3ccccc3C2)cc(Cl)c2cccnc12	4.84 µM
CCCC(=O)NC(c1ccccc1OC)c1ccc2cccnc2c1O (stereo not drawn)	> 16 µM (inactive)
O=C1/C(=C/c2cccnc2)CCc2c1[nH]c1ccccc21	> 15 µM (inactive)
O=C(NCc1ccco1)c1sc(=S)n2c1[nH]c(=O)c1ccccc12	> 16 µM (inactive)
O=C(Oc1c(CN2CCOCC2)cc(Cl)c2cccnc12)c1ccc(F)cc1	> 16 µM (inactive)
O=C(NNC1=C(C(=O)C(F)(F)F)CCC1)c1ccc(Cl)cc1	> 15 µM (inactive)
CC(C)COCc1ccc(O)c2ncccc12	16.1 µM
O=C(Nc1nnc(-c2ccc(F)cc2)o1)c1cccc([N+](=O)[O-])c1	> 15 µM (inactive)
COc1ccc(C(=O)NNC(=S)NC(=O)c2ccc(Cl)cc2)cc1	> 16 µM (inactive)
CCCCCCc1c(C)nc(-n2[nH]c(C)c(CCO)c2=O)[nH]c1=O	> 16 µM (inactive)
C=CCNC(=S)Nc1sc2c(c1C(=O)OCC)CC(C)(CC)OC2 (stereo not drawn)	> 15 µM (inactive)
O=C(NCc1ccc(F)cc1)C(c1ccccc1)N(CC1CCCO1)C(=O)Cn1nnc2ccccc21 (stereo not drawn)	> 15 µM (inactive)
Cc1ccccc1C(=O)O/N=C/c1c(N2CCOCC2)n(C)c2ccccc12	> 16 µM (inactive)
CC(=O)Nc1ccc(Nc2c3ccccc3nc3ccccc23)cc1	> 15 µM (inactive)
CNC(=O)Nc1cc(C(F)(F)F)cc(C(F)(F)F)c1	> 15 µM (inactive)
C(=C\c1ccccc1)/CN1CCN(c2ncnc3c2oc2ccccc23)CC1	> 16 µM (inactive)
O=C(Nc1nnc(-c2ccc3c(c2)CCCC3)o1)c1ccccc1	9.67 µM
CCc1cc(C(=O)NC2CCCc3c2cnn3-c2cccc(C)c2C)n(C)n1 (stereo not drawn)	> 15 µM (inactive)
O=C1CS/C(=N\C(=O)N2c3ccccc3Sc3ccccc32)N1	> 15 µM (inactive)
CCN1/C(=C/c2ccc3cc(C)ccc3[n+]2CC)Sc2ccc3sccc3c21	1.75 µM
Cc1cc(C(C#N)c2ccccc2F)n2ncnc2n1 (stereo not drawn)	> 16 µM (inactive)
Cc1cc(=O)oc2cc(Oc3ccc([N+](=O)[O-])cc3[N+](=O)[O-])ccc12	> 16 µM (inactive)

SMILES	EC50
Oc1ccc2ccccc2c1/C=N/Nc1nnc(-c2ncc[nH]2)c2ccccc12	> 15 µM (inactive)
O=C(/C(=N/N=C/c1ccc(O)c(O)c1O)c1ccccc1)c1ccccc1	> 15 µM (inactive)
CC(C)(C)c1ccc(OCCCC(=O)NNC(=O)c2ccccc2O)cc1	> 16 µM (inactive)
CCN(CC)c1ccc(/C=N/NC(=O)c2cccc(S(=O)(=O)N3CCOCC3)c2)c(O)c1	> 16 µM (inactive)
C=CCNC(=S)N/N=C(\C)c1ccccn1	4.96 µM
Cc1cc(C(=O)N/N=C/c2cc(Cl)cc([N+](=O)[O-])c2O)c2ccccc2n1	> 15 µM (inactive)
O=c1[nH]c(-c2ccccn2)nc(C(F)(F)F)c1Br	> 15 µM (inactive)
COc1ccc(-c2nnc(NC(=O)c3cc(Cl)ccc3Cl)o2)cc1	> 15 µM (inactive)
CC(C)N1CCc2c(sc(NC(=O)c3nc4ccccc4s3)c2C(N)=O)C1	> 15 µM (inactive)
CS/C(=N\S(=O)(=O)c1cccs1)Nc1ccc(Br)cc1F	> 15 µM (inactive)
CC(=O)NC(c1ccc(C)cc1)c1cc([N+](=O)[O-])c2cccnc2c1O (stereo not drawn)	> 16 µM (inactive)
CC[n+]1c(C=C2C=C(C)OC(C)=C2)sc2ccccc21	> 16 µM (inactive)
O=C(c1ccc(Cn2c(=O)[nH]c3ccccc3c2=O)cc1)N1CCN(c2ccc(F)cc2)CC1	> 15 µM (inactive)
C(C#CCCCCCCCCC[n+]1ccccc1)#CCCCCCCCCC[n+]1ccccc1	2.52 µM
COC(=O)Cn1nc(-c2ccccc2)c2ccccc21	> 15 µM (inactive)
O=C(CCS(=O)(=O)c1ccc(F)cc1)Nc1nc(-c2ccncc2)cs1	> 15 µM (inactive)
CC(C)CC(=O)NC(c1cccs1)c1ccc2cccnc2c1O (stereo not drawn)	14.2 µM
O=C(Oc1cc2oc(=O)c3c(c2cc1Cl)CCCC3)c1cccs1	> 15 µM (inactive)
Cc1ccc(NC(=O)c2noc(C(C)C)c2[N+](=O)[O-])cc1	> 16 µM (inactive)
CCc1cc(C(=O)NNC(=S)Nc2cc(C)ccc2C)cs1	> 15 µM (inactive)
CCCCCCOC(=O)C[N+](C)(C)CCOC1CC2CCC1(C)C2(C)C (stereo not drawn)	> 16 µM (inactive)
COc1ccc(C(c2c(O)ccc3ccccc23)N2CCOCC2)c(OC)c1 (stereo not drawn)	> 16 µM (inactive)
S=c1[nH]nc(C2CCCCC2)n1/N=C/c1ccc(Br)s1	> 15 µM (inactive)
COc1ccc(-c2nnc(NC(=O)c3ccc(S(=O)(=O)N4CCc5ccccc5C4)cc3)o2)cc1	> 15 µM (inactive)
O=C(NC(Nc1nc2ccc([N+](=O)[O-])cc2s1)(C(F)(F)F)C(F)(F)F)c1ccccc1Cl	> 16 µM (inactive)

SMILES	EC50
[O-][N+]1=c2ccc(Nc3ccccc3)cc2=NC12CCCCC2	> 15 µM (inactive)
Cc1oc2c(F)c(F)c(F)c(F)c2c1S(=O)(=O)Nc1cccc(C(F)(F)F)c1	> 16 µM (inactive)
Cc1oc2ccc(OC(=O)N(C)C)cc2c1C(=O)OC(C)C	> 16 µM (inactive)
Cc1ccc(-n2c(O)c(C=Nc3ccccc3-c3n[nH]c(=S)[nH]c3=O)c3ccccc3c2=O)cc1C	> 16 µM (inactive)
CCCCC(=O)NC(c1ccccc1)c1ccc2cccnc2c1O (stereo not drawn)	> 15 µM (inactive)
Cc1ccc(C(=O)c2coc3c2C(=O)C(=O)c2ccccc2-3)cc1	10.7 µM
CCOC(=O)c1c(-c2ccccc2Cl)cn2ccccc12	> 16 µM (inactive)
COc1ccc2c(c1)/C(=C/c1cnc[nH]1)C(=O)N2	> 16 µM (inactive)
CCN(CC)S(=O)(=O)c1ccc(N/N=C/c2ccc(O)cc2O)nc1	> 16 µM (inactive)
Cc1cccc(C(=O)CC(=O)c2cc(Cl)ccc2O)c1	> 15 µM (inactive)
CCOc1ccc(NC(=S)NNC(=O)c2ccc(Br)cc2)cc1	> 16 µM (inactive)
O=C(N/N=C/c1cc([N+](=O)[O-])ccc1O)c1ccc(COc2ccc3c(c2)CCC3)o1	12.3 µM
COc1ccc(C2c3ccc4ccccc4c3Oc3ncn(CCN4CCOCC4)c(=N)c32)cc1 (stereo not drawn)	> 16 µM (inactive)
COCCn1c(=O)[nH]c(=O)c2cc(C(=O)c3cc(Cl)ccc3O)cnc21	> 16 µM (inactive)
Cc1ccc(-c2nc3c(Cl)cc(Cl)cc3c(=O)n2O)cc1	11.5 µM
CCCCCCSc1nnc2[nH]c(=O)cc(N)n12	> 15 µM (inactive)
O=C(NCc1ccccc1)c1sc(=S)n2c1[nH]c(=O)c1ccccc12	> 15 µM (inactive)
CCCC(=O)NC(c1ccc(C)cc1)c1ccc2cccnc2c1O (stereo not drawn)	> 15 µM (inactive)
c1ccc2c(c1)CCN(c1ncnc3c1[nH]c1ccccc13)C2	> 15 µM (inactive)
O=C(NNC(=S)Nc1ccc(Cl)c(Cl)c1)c1ccccn1	11.3 µM
O=C(c1cc2c(s1)CCCCC2)N1CCN(c2ncccn2)CC1	> 16 µM (inactive)
Cc1cc2ccccn2c1C(C[N+](=O)[O-])c1c(F)cccc1Cl (stereo not drawn)	2.82 µM
Oc1ccc(N=Nc2ccc3c(c2)OCCO3)c2ncccc12	3.31 µM
Cc1cccc2sc(NNC(=O)c3cc(-c4cccs4)nc4ccccc34)nc12	> 16 µM (inactive)
COc1cccc(COc2cc3ccccc3nc2C)c1	> 16 µM (inactive)

SMILES	EC50
C[C@@H]1C[C@@H]2O[C@H]2/C=C\C=C\C(=O)Cc2c(Cl)c(O)cc(O)c2C(=O)O1	> 16 µM (inactive)
CCc1cc(-c2n[nH]c(=S)n2-c2ccccc2C)cs1	> 16 µM (inactive)
O=[N+]([O-])c1c(C(Cl)Cl)nn(-c2ccc(Cl)cc2)c1N1CCCCC1	> 16 µM (inactive)
CCCCC(=O)NC(c1ccc(N(CC)CC)cc1)c1ccc2cccnc2c1O (stereo not drawn)	8.6 µM
Cc1ccc2nc(N3C(=O)C(O)=C(C(=O)c4ccco4)C3c3ccc(C)o3)sc2c1 (stereo not drawn)	> 15 µM (inactive)
CC(=O)NC1CCCN(O)C(=O)/C=C(\C)CCOC(=O)C(NC(C)=O)CCCN(O)C(=O)/C=C(\C)CCOC(=O)C(NC(C)=O)CCCN(O)C(=O)/C=C(\C)CCOC1=O (stereo not drawn)	2.05 µM
Cc1c(O)c2c3c(cccc3c1O)C(=O)N(c1ccccc1)C2=O	> 15 µM (inactive)
Cc1nnc(NC(=O)CSc2ncnc3c2cnn3-c2ccccc2C)s1	> 15 µM (inactive)
O=C(NNC1=C(C(=O)C(F)(F)F)CCC1)c1cccc(Cl)c1	> 16 µM (inactive)
CCNc1nc(NC(C)C)nc(NC(C)(C)C)n1	> 16 µM (inactive)
CCCC(=O)NC(c1ccc(N(C)C)cc1)c1ccc2cccnc2c1O (stereo not drawn)	> 16 µM (inactive)
COc1ccc(-c2nnc(NC(=O)c3ccc(F)cc3)o2)cc1	> 15 µM (inactive)
COc1cccc(C2CC(c3ccc(NS(C)(=O)=O)cc3)=NN2C(=O)c2ccccc2)c1OC (stereo not drawn)	> 15 µM (inactive)
Cc1cccc(/C=C/C(=O)c2cc(Br)ccc(=O)c2O)c1	14.5 µM
CC1CCN(Cc2c(C(=O)N/N=C/c3cc(Br)ccc3O)nnn2-c2nonc2N)CC1	> 16 µM (inactive)
COc1ccc(C2C(C#N)=C(N)Oc3c2ccc2cccnc32)cc1OC (stereo not drawn)	> 15 µM (inactive)
Nc1ccc(C(=O)N/N=C\c2ccc(OC(=O)c3ccccc3Cl)cc2)cc1	> 16 µM (inactive)
Cc1cc(Nc2ccccc2)nc(NCc2ccccc2)n1	> 15 µM (inactive)
Cc1nn(-c2ccccc2)c(C)c1C(=O)OC/C(O)=C(\C#N)c1nc2ccccc2[nH]1	> 15 µM (inactive)
O=C(N/N=C/c1sc2ccccc2c1O)c1cccc2ccccc12	> 16 µM (inactive)
NC(=NCCCCCCN=C(N)/N=C(\N)Nc1ccc(Cl)cc1)/N=C(\N)Nc1ccc(Cl)cc1	> 16 µM (inactive) and > 15 µM (inactive)
O=C(NNc1nc2ccc(Cl)cc2s1)c1cc(-c2cccs2)nc2ccccc12	> 16 µM (inactive)
CCCCc1c(O)nc(SCC(=O)Nc2cccc3ccccc23)n(-c2ccccc2OC)c1=O	> 16 µM (inactive)
